We go through 23 compounds from patent publication US20120232070A1, “Use of Indole Derivatives as Nurr-1 Activators for the Application Thereof as a Medicament for the Treatment of Parkinson's Disease” (Laboratoires Fournier SA, priority 2009, published 2012).

One may read the EC50 as the concentration giving half of the maximal effect. Read a low EC50 as an effect from little substance.

Assay [1] deals with hNurr1_RXRαFL (NURR1/RXRα heterodimer) (Homo sapiens, UniProt P19793+P43354). The assay can be described thus: Transactivation assay in Cos-7 cells, NURR-1-Gal4 / RXRα, luciferase reporter. It counts as cell-based. The conditions noted are these: for Emax: COS-7, read-out: hNurr1_RXRαFL Eff (%), efficacy in % relative to the reference XCT0135908 at 2·10^−5 M (=100%); for EC50: Cos-7 cells, overnight incubation; for hNurr1_RXRαFL Eff (%): efficacy in % relative to the reference XCT0135908 at 2·10^−5 M (=100%). On the procedure:
(§1) First, the capacity of the compounds according to the invention for acting as an activator of the heterodimers formed by the NURR-1 nuclear receptor and the RXR nuclear receptors was measured by an in vitro assay.
(§2) A transactivation assay was used as a primary screening assay. Cos-7 cells were co-transfected with a plasmid expressing a chimera of the human receptor NURR-1-Gal4, a plasmid expressing the human receptor RXR (RXRα or RXRγ receptor) and a reporter plasmid 5Gal4pGL3-TK-Luc. The transfections were performed by means of a chemical agent (Jet PEI).
(§3) The transfected cells were distributed in 384-well plates and left resting for 24 hours.
(§4) After 24 hours, the culture medium was changed. The products according to the invention were added (final concentration between 10^−4 and 3·10^−10 M) to the culture medium. After overnight incubation, luciferase expression was measured after addition of “SteadyGlo” according to the manufacturer's instructions (Promega).
(§5) 4-[[6-Methyl-2-phenyl-5-(2-prop enyl)-4-pyrimidinyl]amino]-benzoic acid (called XCT0135908, which was described in the article by Wallen-Mackenzie et al. published in Genes & Development 17, pages 3036-3047) at 2·10^−5 M (RXR agonist) was used as reference.
(§6) The levels of induction (designated by “efficiency”) were calculated relative to the baseline activity of each heterodimer. The results were expressed as a percentage of the level of induction relative to the level of induction obtained with the reference (the level of induction of the reference is arbitrarily taken to be 100%).
In general terms: Reporter assays use an easily measured gene product as a stand-in for the process of interest.

Assay [2] has as its target hNurr1_RXRγFL (NURR1/RXRγ heterodimer) (Homo sapiens, UniProt P43354+P48443). As to the kind of experiment: Transactivation assay in Cos-7 cells, NURR-1-Gal4 / RXRγ, luciferase reporter. It counts as cell-based. The conditions noted are these: for Emax: COS-7, read-out: hNurr1_RXRγFL Eff (%), efficacy in % relative to the reference XCT0135908 at 2·10^−5 M (=100%); for EC50: Cos-7 cells, overnight incubation. As for the experimental part: as §1, §2, §3, §4, §5, §6

Chain of hNurr1_RXRαFL (NURR1/RXRα heterodimer) (P19793 whole entry, the tested form may be a part): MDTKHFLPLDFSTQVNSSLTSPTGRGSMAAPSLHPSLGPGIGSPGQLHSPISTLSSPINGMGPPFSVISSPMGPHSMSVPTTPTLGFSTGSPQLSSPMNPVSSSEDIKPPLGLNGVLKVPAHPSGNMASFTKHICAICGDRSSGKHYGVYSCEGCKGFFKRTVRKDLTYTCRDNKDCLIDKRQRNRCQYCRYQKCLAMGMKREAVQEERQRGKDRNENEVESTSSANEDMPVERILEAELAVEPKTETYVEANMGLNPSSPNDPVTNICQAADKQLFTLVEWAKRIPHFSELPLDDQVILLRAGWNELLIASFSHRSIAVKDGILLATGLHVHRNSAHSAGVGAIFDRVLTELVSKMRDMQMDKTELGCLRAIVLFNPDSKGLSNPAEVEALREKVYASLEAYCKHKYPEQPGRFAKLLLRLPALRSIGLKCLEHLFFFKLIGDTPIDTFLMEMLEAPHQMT
Chain of hNurr1_RXRαFL (NURR1/RXRα heterodimer) (P43354 328-598): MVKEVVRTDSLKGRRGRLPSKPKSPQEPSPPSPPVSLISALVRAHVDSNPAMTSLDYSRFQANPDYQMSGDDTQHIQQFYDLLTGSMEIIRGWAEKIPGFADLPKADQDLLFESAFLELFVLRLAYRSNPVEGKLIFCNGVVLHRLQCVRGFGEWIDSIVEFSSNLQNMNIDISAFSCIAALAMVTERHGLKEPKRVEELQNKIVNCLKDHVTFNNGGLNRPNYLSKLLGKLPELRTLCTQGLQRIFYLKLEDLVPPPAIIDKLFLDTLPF
Chain of hNurr1_RXRγFL (NURR1/RXRγ heterodimer) (P43354 328-598): as above
Chain of hNurr1_RXRγFL (NURR1/RXRγ heterodimer) (P48443 whole entry, the tested form may be a part): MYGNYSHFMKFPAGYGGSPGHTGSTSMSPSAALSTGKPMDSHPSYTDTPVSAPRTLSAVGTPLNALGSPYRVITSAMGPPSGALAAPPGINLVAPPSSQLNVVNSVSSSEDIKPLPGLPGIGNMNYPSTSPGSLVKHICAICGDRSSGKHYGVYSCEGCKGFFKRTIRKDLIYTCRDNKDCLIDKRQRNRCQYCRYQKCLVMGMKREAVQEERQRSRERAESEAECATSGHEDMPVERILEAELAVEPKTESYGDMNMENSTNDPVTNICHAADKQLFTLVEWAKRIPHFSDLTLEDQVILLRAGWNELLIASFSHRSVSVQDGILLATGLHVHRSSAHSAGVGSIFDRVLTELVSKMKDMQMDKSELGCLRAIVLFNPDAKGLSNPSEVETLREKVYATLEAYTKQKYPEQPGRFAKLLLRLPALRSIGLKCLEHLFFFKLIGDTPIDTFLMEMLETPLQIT

On to `COC(=O)c1ccc(Cc2cc3cc(C(F)(F)F)ccc3n2S(=O)(=O)c2ccc(C(C)C)cc2)cc1F` [Example 1, 2-fluoro-4-[[1-[[4-(1-methylethyl)phenyl]sulfonyl]-5-(trifluoromethyl)-1H-indol-2-yl]methyl]benzoic acid, methyl ester], for which, in assay [1], the Emax was determined as 65% and the concentration giving a half-maximal response (EC50) amounted to 412 nM. In assay [2], the Emax is 60% and the 50% effective concentration (EC50) amounted to 718 nM.
Taken in the same sequence, the figures for `CC(C)(C)c1cccc(S(=O)(=O)n2c(Cc3cccc(C(=O)O)c3)cc3cc(C(F)(F)F)ccc32)c1` [Example 8, 3-[[1-[[3-(1,1-dimethylethyl)phenyl]sulfonyl]-5-(trifluoromethyl)-1H-indol-2-yl]methyl]benzoic acid] were 96%, 101 nM, 74% and 99 nM.
In the case of `CC(C)(C)c1cccc(S(=O)(=O)n2c(Cc3ccc(C(=O)O)c(F)c3)cc3cc(C(F)(F)F)ccc32)c1` [Example 10, 2-fluoro-4-[[1-[[3-(1,1-dimethylethyl)phenyl]sulfonyl]-5-(trifluoromethyl)-1H-indol-2-yl]methyl]benzoic acid], in assay [1], the Emax was 63% and the EC50 amounted to 406 nM. In assay [2], the Emax was 56% and a half-maximal response (EC50) required 943 nM.
On to `CC(C)c1ccc(S(=O)(=O)n2c(Cc3csc(C(=O)O)c3)cc3cc(C(F)(F)F)ccc32)cc1` [Example 72, 4-[[1-[[4-(1-methylethyl)-phenyl]sulfonyl]-5-trifluoromethyl-1H-indol-2-yl]methyl]-thiophene-2-carboxylic acid], for which, in assay [1], the Emax amounted to 131% and the EC50 was determined as 72 nM.
Turning to `CN1CCOc2ccc(S(=O)(=O)n3c(Cc4csc(C(=O)O)c4)cc4cc(C(F)(F)F)ccc43)cc21` [Example 74, 4-[[1-[(4-methyl-3,4-dihydro-2H-benzo[1,4]oxazin-6-yl)-sulfonyl]-5-trifluoromethyl-1H-indol-2-yl]methyl]-thiophene-2-carboxylic acid], in assay [1], the Emax amounted to 150% and a half-maximal effect (EC50) was put at 40 nM.
Taken in the same sequence, the figures for `CN1CCOc2ccc(S(=O)(=O)n3c(Cc4ccc(C(=O)O)o4)cc4cc(C(F)(F)F)ccc43)cc21` [Example 75, 5-[[1-[(4-methyl-3,4-dihydro-2H-benzo[1,4]oxazin-6-yl)-sulfonyl]-5-trifluoromethyl-1H-indol-2-yl]methyl]-furan-2-carboxylic acid] were 114% and 66 nM.
With `CN1CCOc2ccc(S(=O)(=O)n3c(Cc4cc(C(=O)O)co4)cc4cc(C(F)(F)F)ccc43)cc21` [Example 76, 5-[[1-[[4-methyl-3,4-dihydro-2H-benzo[1,4]oxazin-6-yl)-sulfonyl]-5-trifluoromethyl-1H-indol-2-yl]methyl]-furan-3-carboxylic acid], in assay [1], the Emax is 138% and the EC50 was 63 nM.
Taken in the same sequence, the figures for `O=C(O)c1cc(Cc2cc3cc(Cl)ccc3n2S(=O)(=O)c2ccc3c(c2)OCCO3)cs1` [Example 78] were 116% and 331 nM.
As for `O=C(O)c1ccc(Cc2cc3cc(Cl)ccc3n2S(=O)(=O)c2ccc3c(c2)OCCO3)o1` [Example 79, 5-[[5-chloro-1-[(2,3-dihydro-benzo[1,4]dioxin-6-yl)sulfonyl]-1H-indol-2-yl]methyl]-furan-2-carboxylic acid], in assay [1], the Emax is 147% and the EC50 was 724 nM.
As to `Cn1cc(Cc2cc3cc(C(F)(F)F)ccc3n2S(=O)(=O)c2cccc(C(C)(C)C)c2)cc1C(=O)O` [Example 87, 4-[[1-[[3-(1,1-dimethylethyl)-phenyl]sulfonyl]-5-trifluoromethyl-1H-indol-2-yl]methyl]-1-methyl-pyrrol-2-yl-carboxylic acid], in assay [1], the Emax came to 123% and the EC50 was 30 nM.
With `CC(C)(C)c1cccc(S(=O)(=O)n2c(C(O)c3ccc(C(=O)O)s3)cc3cc(C(F)(F)F)ccc32)c1` (centres unmarked) [Example 91, 5-[[1-[[3-(1,1-dimethylethyl)-phenyl]sulfonyl]-5-trifluoromethyl-1H-indol-2-yl]hydroxymethyl]-thiophene-2-carboxylic acid], in assay [1], the Emax was 100% and the EC50 amounted to 72 nM.
As for `CC(C)(C)c1cccc(S(=O)(=O)n2c(C(=O)c3ccc(C(=O)O)s3)cc3cc(C(F)(F)F)ccc32)c1` [Example 94, 5-[[1-[[3-(1,1-dimethylethyl)-phenyl]sulfonyl]-5-trifluoromethyl-1H-indol-2-yl]-carbonyl]-thiophene-2-carboxylic acid], in assay [1], the Emax amounted to 106% and it took 1240 nM to reach a half-maximal effect (EC50).
As for `CC(C)(C)c1cccc(S(=O)(=O)n2c(C(C)(O)c3ccc(C(=O)O)s3)cc3cc(C(F)(F)F)ccc32)c1` (centres unmarked) [Example 95, 5-[1-[1-[[3-(1,1-dimethylethyl)-phenyl]sulfonyl]-5-(trifluoromethyl)-1H-indol-2-yl]-1-hydroxyethyl]-thiophene-2-carboxylic acid], in assay [1], the Emax amounted to 99% and the response was half-maximal at 209 nM (EC50).
`C=C(c1ccc(C(=O)O)s1)c1cc2cc(C(F)(F)F)ccc2n1S(=O)(=O)c1cccc(C(C)(C)C)c1` [Example 96, 5-[1-[1-[[3-(1,1-dimethylethyl)-phenyl]sulfonyl]-5-(trifluoromethyl)-1H-indol-2-yl]-1-ethenyl]-thiophene-2-carboxylic acid]: in assay [1], the Emax is 54% and the EC50 worked out at 339 nM.
Taken in the same sequence, the figures for `O=C(O)c1ccc(Cc2cc3cc(C(F)(F)F)ccc3n2S(=O)(=O)c2ccc(C(=O)N3CCOCC3)cc2)cc1` [Example 129, 4-[[1-[4-(morpholine-4-carbonyl)benzenesulfonyl]-5-(trifluoromethyl)-1H-indol-2-yl]methyl]benzoic acid] were 41% and 804 nM.
On to `CC(C)(C)c1cccc(S(=O)(=O)n2c(Cc3cc(C(=O)O)ccc3F)cc3cc(C(F)(F)F)ccc32)c1` [Example 199, 3-[[1-[[3-(1,1-dimethylethyl)-phenyl]sulfonyl]-5-trifluoromethyl-1H-indol-2-yl]methyl]-4-fluorobenzoic acid], for which, in assay [1], the Emax is 118% and the EC50 is 22 nM.
As for `CC(C)(C)c1cccc(S(=O)(=O)n2c(Cc3cc(F)cc(C(=O)O)c3)cc3cc(C(F)(F)F)ccc32)c1` [Example 200, 3-[[1-[[3-(1,1-dimethylethyl)-phenyl]sulfonyl]-5-trifluoromethyl-1H-indol-2-yl]methyl]-5-fluorobenzoic acid], in assay [1], the Emax is 93%.
Regarding `CC(C)(C)c1cccc(S(=O)(=O)n2c(Cc3cc(F)cc(C(=O)O)c3)cc3cc(C(F)(F)F)ccc32)c1` [Example 201, 3-[[1-[[3-(1,1-dimethylethyl)-phenyl]sulfonyl]-5-trifluoromethyl-1H-indol-2-yl]methyl]-5-fluorobenzoic acid], the “hNurr1_RXRαFL Eff (%)” value in assay [1] is reported as 96%.
Take `COc1ccc(Cc2cc3cc(C(F)(F)F)ccc3n2S(=O)(=O)c2cccc(C(C)(C)C)c2)cc1C(=O)O` [Example 202, 3-[[1-[[3-(1,1-dimethylethyl)-phenyl]sulfonyl]-5-trifluoromethyl-1H-indol-2-yl]methyl]-6-methoxybenzoic acid]: in assay [1], the Emax was found to be 104% and the EC50 was found to be 19 nM.
With `CC(C)(C)c1cccc(S(=O)(=O)n2c(Cc3cc(C(=O)O)c(F)cc3Cl)cc3cc(C(F)(F)F)ccc32)c1` [Example 203, 3-[[1-[[3-(1,1-dimethylethyl)-phenyl]sulfonyl]-5-trifluoromethyl-M-indol-2-yl]methyl]-4-chloro-6-fluorobenzoic acid], in assay [1], the EC50 turned out to be 85 nM and the “hNurr1_RXRαFL Eff (%)” value is 83%.
Regarding `CC(C)(C)c1cccc(S(=O)(=O)n2c(Cc3ccc(C(=O)O)cc3Cl)cc3cc(C(F)(F)F)ccc32)c1` [Example 205, 4-[[1-[[3-(1,1-dimethylethyl)-phenyl]sulfonyl]-5-trifluoromethyl-1H-indol-2-yl]methyl]-3-chlorobenzoic acid], in assay [1], the Emax amounted to 75% and a half-maximal effect (EC50) was put at 98 nM.
As to `COc1c(Cc2cc3cc(C(F)(F)F)ccc3n2S(=O)(=O)c2cccc(C(C)(C)C)c2)cccc1C(=O)O` [Example 207, 3-[[1-[[3-(1,1-dimethylethyl)-phenyl]sulfonyl]-5-trifluoromethyl-1H-indol-2-yl]methyl]-2-methoxybenzoic acid], in assay [1], the Emax came to 48% and the EC50 was determined as 513 nM.
Taken in the same sequence, the figures for `COc1ccc(C(=O)O)cc1Cc1cc2cc(C(F)(F)F)ccc2n1S(=O)(=O)c1cccc(C(C)(C)C)c1` [Example 208, 3-[[1-[[3-(1,1-dimethylethyl)-phenyl]sulfonyl]-5-trifluoromethyl-1H-indol-2-yl]methyl]-4-methoxybenzoic acid] were 31% and 240 nM.
